Where two headings read alike, the source gives them in different places.
Legend:
[1] = test system: LPS-induced TNF-α release in primary cultured microglial cells; assay: LPS-induced TNF-α release from primary cultured microglial cells (ELISA); assay type: cell-based, mouse
Procedure: Murine primary culture microglial cells were isolated from mouse cerebral cortices (C57BL/6 mice) and cultured as previously described (Tan et al. 2000b). To investigate whether α7 nAChR subunits are expressed in microglial cells, we first isolated total RNA from N9 microglial cell line and primary cultured microglial cells for RT-PCR analysis.
To determine whether ACh or nicotine could inhibit LPS-induced TNF-α production in these microglial cells, the inventors pre-incubated microglial cells with ACh or nicotine for 30 minutes and challenged these cells with LPS for 4 hours. […] Primary cultured microglial cells pretreated with ACh (FIG. 3B) or nicotine […] at a range of dose as indicated for 30 minutes and challenged with LPS (100 ng/mL) for 4 hours. Microglial TNF-α release was measured by ELISA.

α7 nAChR subunit = α7 nAChR subunit (Mus musculus, UniProt P49582)
α7 nAChR subunit, sequence (P49582 23-502): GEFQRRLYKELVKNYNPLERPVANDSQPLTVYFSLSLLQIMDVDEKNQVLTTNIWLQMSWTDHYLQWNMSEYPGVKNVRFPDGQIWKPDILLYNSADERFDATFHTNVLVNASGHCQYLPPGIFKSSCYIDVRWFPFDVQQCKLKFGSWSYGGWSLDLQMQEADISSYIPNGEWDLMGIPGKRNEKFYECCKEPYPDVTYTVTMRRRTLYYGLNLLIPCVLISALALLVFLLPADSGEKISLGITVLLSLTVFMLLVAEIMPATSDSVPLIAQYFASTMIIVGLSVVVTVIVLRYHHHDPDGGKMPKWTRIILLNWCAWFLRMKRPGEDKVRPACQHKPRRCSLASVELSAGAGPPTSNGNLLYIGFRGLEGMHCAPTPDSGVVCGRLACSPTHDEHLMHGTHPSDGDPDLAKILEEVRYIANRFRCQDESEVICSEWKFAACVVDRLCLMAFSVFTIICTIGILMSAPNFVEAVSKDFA

## CN1CCCC1c1cccnc1 (stereo not drawn) [nicotine]
[1]
  dose dependence of inhibition of microglial LPS-induced TNF-α production: dose-dependently inhibits
[1]; pre-stimulated 30 minutes at 5 μM, then LPS 100 ng/mL for 4 hours, p<0.01 vs LPS (FIG. 3A)
  LPS-induced TNF-α release: marked reduction
α7 nAChR subunit
  fluorescent intensity of FITC-labeled α-bungarotoxin binding: marked reduction

## CNC1(C)C2CCC(C2)C1(C)C (stereo not drawn) [mecamylamine]
[1]
  effect of nACh antagonist on ACh or nicotine-mediated inhibition of microglial TNF-α production: significantly recovers
[1]; antagonist without agonist, […], LPS 100 ng/mL 4 hours, p>0.05
  TNF-α release, antagonist plus LPS versus LPS alone: no significances

## α-bungarotoxin
[1]
  TNF-α release, antagonist plus LPS versus LPS alone: no significances

Source: patent US20060142180A1, “Cholinergic modulation of microglial activation via alpha-7 nicotinic receptors” (priority 2003, published 2006)
